Where a name gives a salt, the structure may show the parent alone.
Assays:
[1] = Safety and tolerability in the Phase 1 study; format: in vivo, human; details: healthy adult subjects, fedratinib 400 mg, Parts 1 and 2
Excerpt: During the study, blood samples will be collected at prespecified times for PK. Subject safety will be monitored throughout the study. The study will be conducted in compliance with the International Council on Harmonization (ICH) of Technical Requirements for Registration of Pharmaceuticals for Human Use/Good Clinical Practice (GCP) and applicable regulatory requirements.

[2] = Population pharmacokinetics analysis of cumulative data from 452 patients; format: in vivo, human; details: age 20 to 95 years, body weight 40 to 135 kg
STAT3/STAT5 = details: patient-derived cell lines expressing JAK2V617F and cells engineered to express WT JAK2 or JAK2V617F; cited from earlier work
[3] = Effect of meals on fedratinib pharmacokinetics; format: in vivo, human; details: high-fat, high-calorie meal (approx. 815 calories, 52% fat) and low-fat, low-calorie meal (approx. 162 calories, 6% fat)
Method: (§1) Thus, fedratinib can be taken with or without regard to food. Moreover, the most frequently reported gastrointestinal (GI)-related treatment-emergent adverse events, such as nausea and vomiting, are less frequent in the fed state (62.5% and 16.7%,) than in the fasting state (87.5% and 66.7%) in subjects receiving a 500 mg fedratinib. Therefore, administration in the fed state, i.e., with nutritional supplement can reduce the incidence of nausea and vomiting.

[4] = Phase 1 crossover relative bioavailability study, Part 1: fedratinib plasma PK; format: in vivo, human; details: for AUC0-t / Cmax: plasma
Method: (§2) An open-label, single-site, 2-part crossover study will be conducted in healthy adult subjects. This study will evaluate the RBA of 400 mg fedratinib when administered orally as contents of capsules dispersed in a nutritional supplement or via NG tube or administered orally as intact capsules with a nutritional supplement as a divided dose (200 mg BID) in comparison to intact capsules with a nutritional supplement. Each study part will consist of a randomized, multiple-sequence, open-label design. The study parts can be run in any order or in parallel. Subjects may participate in 1 part only. Each study part will consist of Screening, a Treatment phase (including baseline), and a Follow-up phone call. There will be a washout period of at least 12 days between each dose of fedratinib.
Part 1 will consist of a randomized, 2-period, 2-sequence, open-label design. Subjects will be screened for eligibility. Subjects who meet all inclusion criteria and none of the exclusion criteria will return to the study center on Day-1 for protocol-specified assessments and the start of domiciling; subjects will remain domiciled at the study center throughout both study periods.
(§3) On the evening before each dosing, all subjects will begin an overnight fast of at least 10 hours prior to dosing. No food or beverages (except water and any nutritional supplement administered with IP) will be allowed for at least 4 hours after dosing. Water is allowed as desired except for 1 hour before and 1 hour after each dosing. Each dose, with the exception of Treatment 2B, will be administered orally with approximately 240 mL noncarbonated, room temperature water. Dose modifications or interruptions are not permissible in this study.
Each subject will receive the following treatments across 2 study periods: • Treatment 1A=oral administration of a single 400-mg dose of fedratinib (4×100-mg capsules) with a nutritional supplement (reference) • Treatment 1B=oral administration of a single 400-mg dose of fedratinib with contents of 4×100-mg capsules dispersed in a nutritional supplement (test)
(§4) All planned doses will be administered with a commercially available nutritional supplement (e.g., Ensure Plus® or Boost Plus®). The chosen nutritional supplement will be used throughout the study. The volume of nutritional supplement to be administered with each dose will be (e.g., approximately 180 mL).
(§5) Blood samples (approximately 3 mL each) for the measurement of fedratinib concentrations in plasma will collected at the following time points: • Treatment 1A, 1B, 2A and 2B: pre dose (0 hour) and at 0.5, 1, 1.5, 2, 3, 4, 6, 8, 12, 24, 48, 72, 120, 168, 192, and 240 hours post dose. • Treatment 2C: pre dose (0 hour) and at 0.5, 1, 1.5, 2, 3, 4, 6, 8, 12 (pre dose of the second dose), 12.5, 13, 13.5, 14, 15, 16, 18, 24, 48, 72, 120, 168, 192, and 240 hours post dose of the first dose.
(§6) Fedratinib plasma PK concentrations will be measured using a validated liquid chromatography tandem mass spectrometry assay
Fedratinib plasma PK parameters will be calculated using noncompartmental methods. The following key PK parameters will be estimated as allowed by the data: • Maximum observed plasma concentration (Cmax) • Area under the plasma concentration-time curve (AUC) from time zero to the last
To estimate the RBA for Treatments 1B in comparison with Treatment 1A, an ANOVA with treatment, period, and sequence as fixed effects, and subject nested within sequence as a random effect will be performed on the natural log-transformed Cmax, AUC (0-T), and AUC (INF). The geometric means along with ratios of the geometric means (test/reference) and associated 90% confidence intervals will be presented.

[5] = GI-related treatment-emergent adverse events, fed vs fasting state; format: in vivo, human; details: subjects receiving 500 mg fedratinib
Method: as §1

[6] = tested on: patient-derived cell lines expressing JAK2V617F and cells engineered to express WT JAK2 or JAK2V617F; details: cited from earlier work
[7] = Phase 1 crossover relative bioavailability study, Part 2: fedratinib plasma PK; format: in vivo, human; details: for AUC0-∞: geometric mean, one participant excluded (pAUCe >20%); for AUC0-t / Cmax: n = 30, geometric mean, plasma
Method: as §2
Part 2 will consist of a randomized, 3-period, 6-sequence, open-label design. Subjects will be screened for eligibility. Subjects who meet all inclusion criteria and none of the exclusion criteria will return to the study center on Day-1 for protocol-specified assessments and the start of domiciling; subjects will remain domiciled at the study center throughout all study periods.
as §3
Each subject will receive the following treatments across 3 study periods: • Treatment 2A=oral administration of a single 400-mg dose of fedratinib (4×100-mg capsules) with a nutritional supplement (reference) • Treatment 2B=a single 400-mg dose of fedratinib, administered via NG tube as contents from 4×100-mg capsules dispersed into a nutritional supplement (test) • Treatment 2C=oral administration of 400-mg fedratinib with a nutritional supplement, given as a divided dose (i.e., BID [2×100-mg capsules each]) (test)
Prior to administration of Treatment 2B, a nasogastric tube will be placed and an X-ray(s) will be performed to confirm correct placement of the nasogastric tube. Following administration of Treatment 2B, the nasogastric tube will be flushed with a volume of sterile water for irrigation equal to approximately 60 mL. Lidocaine gel or a suitable therapeutic equivalent may be used to reduce participant discomfort during the nasogastric tube insertion procedure. The timing from start of the nasogastric tube placement to dosing will be up to 4 hours. Actual time of dose administration will be referred to as “0 hour.”
as §4, §5, §6
Fedratinib plasma PK parameters will be calculated using noncompartmental methods. […]

JAK2V617F-driven MPNs = details: mouse models of JAK2V617F-driven MPNs; cited from earlier work
[8] = Treatment 1A: fedratinib 400 mg oral capsules with nutritional supplement, n = 27, geometric mean
[9] = Treatment 1B (dispersed in nutritional supplement) vs Treatment 1A (intact capsules), 400 mg single dose
[10] = Treatment 1B: fedratinib 400 mg dispersed in supplement, oral, n = 27, geometric mean
[11] = Treatment 2A: fedratinib 400 mg oral capsules with nutritional supplement
[12] = Treatment 2B (via NG tube) vs Treatment 2A (capsules orally), 400 mg single dose
[13] = Treatment 2B: fedratinib 400 mg in supplement via NG tube
[14] = Treatment 2C (divided dose) vs Treatment 2A (single dose)
[15] = Treatment 2C: fedratinib 2 × 200 mg capsules, divided dose

SMILES: Cc1cnc(Nc2ccc(OCCN3CCCC3)cc2)nc1Nc1cccc(S(=O)(=O)NC(C)(C)C)c1 [fedratinib, N-tert-butyl-3-[(5-methyl-2-{[4-(2-pyrrolidin-1-ylethoxy)phenyl]amino}pyrimidin-4-yl)amino] benzenesulfonamide dihydrochloride monohydrate]
- safety signals or treatment-emergent serious adverse events [1]: No new safety signals or treatment-emergent serious adverse events were reported
- effect on fedratinib PK of age, race, sex, body weight, mild or moderate hepatic impairment, mild renal impairment [2]: no clinically meaningful effect
- phosphorylation of STAT3/STAT5 (STAT3/STAT5): reduced
- effect on the pharmacokinetics of fedratinib of administration with a meal [3]: No clinically meaningful effect
- AUC0-∞ ([4]; Treatment 1A: fedratinib 400 mg oral capsules with nutritional supplement, geometric mean, one participant excluded (pAUCe >20%)): 22260 ng·h/mL
- AUC0-t [4, 8]: 20127 ng·h/mL
- Cmax [4, 8]: 1319 ng/mL
- ratio of geometric means (test/reference), AUC (0-T) [4, 9]: 102%
- ratio of geometric means (test/reference), AUC (INF) [4, 9]: 103%
- ratio of geometric means (test/reference), Cmax [4, 9]: 108%
- AUC0-∞ [4, 10]: 22838 ng·h/mL
- AUC0-t [4, 10]: 20598 ng·h/mL
- Cmax [4, 10]: 1425 ng/mL
- frequency of nausea (GI-related treatment-emergent adverse event) ([5]; fasting state): 87.5%
- frequency of vomiting (GI-related treatment-emergent adverse event) ([5]; fasting state): 66.7%
- frequency of nausea (GI-related treatment-emergent adverse event) ([5]; fed state): 62.5%
- frequency of vomiting (GI-related treatment-emergent adverse event) ([5]; fed state): 16.7%
- apoptosis [6]: increased
- cell proliferation [6]: inhibited
- differences in exposure to fedratinib compared to a single dose of 4×100 mg capsules administered orally ([7]; 400 mg, healthy adult participants, with nutritional supplement, via NG tube, or divided capsule dose): no significant differences
- AUC0-∞ [7, 11]: 24963 ng·h/mL
- AUC0-t [7, 11]: 22683 ng·h/mL
- Cmax [7, 11]: 1388 ng/mL
- ratio of geometric means between test and reference, AUC (0-T) [7, 12]: 84%
- ratio of geometric means between test and reference, AUC (INF) [7, 12]: 85%
- ratio of geometric means between test and reference, Cmax [7, 12]: 90%
- AUC0-∞ [7, 13]: 21334 ng·h/mL
- AUC0-t [7, 13]: 19111 ng·h/mL
- Cmax [7, 13]: 1246 ng/mL
- ratio of geometric means between test and reference, AUC (0-T) [7, 14]: 84%
- ratio of geometric means between test and reference, AUC (INF) [7, 14]: 85%
- ratio of geometric means between test and reference, Cmax [7, 14]: 46%
- AUC0-∞ [7, 15]: 21304 ng·h/mL
- AUC0-t [7, 15]: 19002 ng·h/mL
- Cmax [7, 15]: 641.4 ng/mL
- disease-associated symptoms, including leukopenia, anemia, splenomegaly, and fibrosis (JAK2V617F-driven MPNs): improved
- phosphorylation of STAT⅗ (JAK2V617F-driven MPNs): blocked
- survival (JAK2V617F-driven MPNs): increased
